Marks after values point to notes of the source that are not given here.
Key:
[1] = Occupational exposure limit (OEL)
[2] = Comparative storage stability of Compound 1, Batches A, B, C (Example 9A); type: physicochemical
Procedure: Three (3) separate batches of Compound 1 were tested for storage stability. The batches are identified as Batch A, Batch B, and Batch C below. Bulk solid state drug substance was put in polyethylene (PE) double bag in high-density polyethylene (HDPE) containers and the containers were stored under the indicated conditions.

[3] = Comparative bioavailability of bortezomib and boronic ester of Formula XI in rat, Example 10 (i.v.; p.o. in saline); type: in vivo, male Sprague Dawley rats; details: male, Sprague Dawley, iv, bortezomib in plasma, 0.8 mg/kg, mean ± SEM
Procedure: Three adult male Sprague Dawley rats were used in each treatment group. The rats were fasted overnight prior to oral dose administration. Intravenous administration was via the lateral tail vein and oral doses were administered by gavage. The compound was administered iv in a vehicle of 3% DMSO:30% Solutol:67% phosphate buffered saline. Oral dosing was in phosphate buffered saline.
For blood collection, each rat (unanesthetized) was placed in a clear Plexiglas® restraining tube, and blood samples (approximately 0.25 mL) were drawn from a lateral tail vein into heparinized collection tubes at predetermined sampling times (0.083, 0.25, 0.5, 1, 2, 4, and 6 hours post dose). No pre-dose samples were obtained. The exception to this procedure was the last sampling time in which the animals were sacrificed by decapitation and trunk blood was obtained rather than blood via a tail vein. The blood samples were placed on wet ice until centrifuged to separate plasma. The plasma fraction was transferred into clean dry tubes, frozen on dry ice and stored at approximately −20° C. pending analysis.
Plasma was prepared for high performance liquid chromatography (HPLC)/mass spectrometric analysis according to standard protocol following protein precipitation with acetonitrile containing an internal standard. The plasma samples were then analyzed for both bortezomib and alprenolol (internal standard) via HPLC coupled with tandem mass spectrometry.
The plasma concentration data for all rats were entered into Excel spreadsheets in preparation for pharmacokinetic analysis. Pharmacokinetic parameters for bortezomib were estimated for each rat by non-compartmental analysis (Gibaldi M, Perrier D. Pharmacokinetics, 2nd edition, Marcel Dekker, New York, Chapter 11, 1982) of the plasma concentration versus time data using WinNonlin software (Professional Version 4.1, Pharsight Corporation, Palo Alto, Calif., 1997).
The maximum plasma concentration (Cmax) was the highest observed plasma concentration after an oral dose; tmax was the corresponding time when Cmax was observed. The terminal rate constant for elimination from plasma (β) was estimated by linear regression of the terminal portion of the semi-logarithmic plasma concentration versus time curve. The apparent terminal half-life (t1/2) was calculated as 0.693 divided by β. The area under the plasma concentration versus time curve from time zero to the time of the last measurable concentration (AUC0-t) after a single dose was determined by the linear trapezoidal rule. The area from zero to infinity (AUC0-∞) was calculated as the sum of AUC0-t and the area extrapolated from the last measurable concentration to infinity (Clast/β). Concentrations pre dose were all assumed to be zero for the purpose of calculation of the AUC. Oral bioavailability was determined by dividing the dose normalized oral AUC0-∞ by the AUC0-∞ from iv dosing and multiplying by 100 to express the ratio as a percent.

[4] = Storage stability of boronic ester of Formula X, bulk solid state drug substance (Example 9); type: physicochemical
Procedure: Bulk solid state drug substance was put in polyethylene (PE) double bag in high-density polyethylene (HDPE) containers and the containers were stored under three conditions: (a) 4° C., (b) 25° C./60% relative humidity (RH), and (c) 40° C./75% RH.
6-(2S,3R)—N-[(1R)-1-(1,3,6,2-dioxazaborocan-2-yl)-3-methylbutyl}-3-hydroxy-2-{(6-phenylpyridin-2-yl)formamido]butanamide converts to [(1R)-1-[[(2S,3R)-3-Hydroxy-2-[[(6-phenylpyridin-2-yl)carbonyl]amino]-1-oxobutyl]amino]-3-methylbutyl]boronic acid (i.e., Compound 1) as soon as it is in the presence of an aqueous phase. Therefore, HPLC analysis of purity was of the [(1R)-1-[[(2S,3R)-3-Hydroxy-2-[[(6-phenylpyridin-2-yl)carbonyl]amino]-1-oxobutyl]amino]-3-methylbutyl]boronic acid hydrolysis product. Stability was tested at time zero (T0), and after storage for one month (1M), six months (6M) and (except for the 40° C./75% RH conditions) one year (12M).

[5] = Batch B, 5° C./ambient RH, 1 Month
[6] = Batch B, 5° C./ambient RH, 3 Month
[7] = Batch B, 5° C./ambient RH, 6 Month
[8] = Batch C, 5° C./ambient RH, 1 Month
[9] = Batch C, 5° C./ambient RH, 3 Month
[10] = Batch C, 5° C./ambient RH, 6 Month
[11] = Batch C, 5° C./ambient RH, 12 Month

CC(C)C[C@H](NC(=O)[C@@H](NC(=O)c1cccc(-c2ccccc2)n1)[C@@H](C)O)B(O)O [Compound 1, [(1R)-1-[[(2S,3R)-3-hydroxy-2-[6-phenyl-pyridine-2-carbonyl)amino]-1-oxobutyl]amino]-3-methylbutylboronic acid]
occupational exposure limit (OEL) [1]: 0.3 μg/m^3 | HPLC Purity (%) ([2]; Batch A, 4° C./ambient RH, 3 M): 94.5% | Appearance ([2]; Batch A, 4° C./ambient RH, 3 Months): White to off- | HPLC Purity (%) ([2]; Batch A, 4° C./ambient RH, 6 M): 94.1% | Appearance ([2]; Batch A, 4° C./ambient RH, 6 Months): White to off- | HPLC Purity (%) ([2]; Batch A, 25° C./60% RH, 3 M): 94.4% | Appearance ([2]; Batch A, 25° C./60% RH, 3 Months): White to off- | HPLC Purity (%) ([2]; Batch A, 25° C./60% RH, 6 M): 94.1% | Appearance ([2]; Batch A, 25° C./60% RH, 6 Months): White to off- | HPLC Purity (%) ([2]; Batch A, 40° C./75% RH, 3 M): 93.2% | Appearance ([2]; Batch A, 40° C./75% RH, 3 Months): White to off- | HPLC Purity (%) ([2]; Batch A, 40° C./75% RH, 6 M): 88.7% | Appearance ([2]; Batch A, 40° C./75% RH, 6 Months): White to off- | Appearance ([2]; Batch A, T0): White to off- | HPLC Purity (%) ([2]; Batch A, T0 (estimated)): 95.3* % | Appearance [2, 5]: White powder | Assay by HPLC (anhydrous) (%) [2, 5]: 97.1% | Assay by HPLC (as-is) (%) [2, 5]: 90.6% | Total Impurities (%) [2, 5]: 3.0% | Water Content (%) [2, 5]: 6.0% | Appearance [2, 6]: White | Assay by HPLC (anhydrous) (%) [2, 6]: 94.0% | Assay by HPLC (as-is) (%) [2, 6]: 87.5% | Total Impurities (%) [2, 6]: 5.9% | Water Content (%) [2, 6]: 6.1% | Appearance [2, 7]: White powder | Assay by HPLC (anhydrous) (%) [2, 7]: 93.5% | Assay by HPLC (as-is) (%) [2, 7]: 85.1% | Total Impurities (%) [2, 7]: 7.3% | Water Content (%) [2, 7]: 8.2% | Appearance ([2]; Batch B, 5° C./ambient RH, T0): White | Assay by HPLC (anhydrous) (%) ([2]; Batch B, 5° C./ambient RH, T0): 101.7% | Assay by HPLC (as-is) (%) ([2]; Batch B, 5° C./ambient RH, T0): 94.4% | Total Impurities (%) ([2]; Batch B, 5° C./ambient RH, T0): 0.6% | Water Content (%) ([2]; Batch B, 5° C./ambient RH, T0): 6.5% | Appearance [2, 8]: White to yellow | Assay by HPLC (anhydrous) (%) [2, 8]: 97.0% | Assay by HPLC (as-is) (%) [2, 8]: 91.4% | HPLC Purity (%) [2, 8]: 97.2% | Water Content (%) [2, 8]: 4.59% | Appearance [2, 9]: White to yellow | Assay by HPLC (anhydrous) (%) [2, 9]: 102.4% | Assay by HPLC (as-is) (%) [2, 9]: 94.6% | HPLC Purity (%) [2, 9]: 96.2% | Water Content (%) [2, 9]: 6.48% | Appearance [2, 10]: Off-white | Assay by HPLC (anhydrous) (%) [2, 10]: 99.9% | Assay by HPLC (as-is) (%) [2, 10]: 91.0% | HPLC Purity (%) [2, 10]: 96.3% | Water Content (%) [2, 10]: 7.74% | Appearance [2, 11]: Off-white | Assay by HPLC (anhydrous) (%) [2, 11]: 95.9% | Assay by HPLC (as-is) (%) [2, 11]: 87.0% | HPLC Purity (%) [2, 11]: 96.2% | Water Content (%) [2, 11]: 8.16% | Appearance ([2]; Batch C, 5° C./ambient RH, T0): Yellowish | Assay by HPLC (anhydrous) (%) ([2]; Batch C, 5° C./ambient RH, T0): 98.1% | Assay by HPLC (as-is) (%) ([2]; Batch C, 5° C./ambient RH, T0): 92.9% | HPLC Purity (%) ([2]; Batch C, 5° C./ambient RH, T0): 98.2% | Water Content (%) ([2]; Batch C, 5° C./ambient RH, T0): 4.16% | increase of total impurities ([2]; within six months, refrigerated conditions): more than 10 fold

CC(C)C[C@H](NC(=O)[C@H](Cc1ccccc1)NC(=O)c1cnccn1)B(O)O [bortezomib, [(1R)-3-methyl-1-({(2S)-3-phenyl-2-[(pyrazin-2-ylcarbonyl)amino]propanoyl}amino)butyl]boronic acid]
AUC(0-inf) ([3]; n = 3): 472 ± 127 ng·h/mL | AUC(0-t) ([3]; n = 3): 459 ± 127 ng·h/mL | Vd ([3]; n = 3): 2.4 ± 0.8 L/kg | clearance ([3]; n = 3): 34 ± 11 mL/min/kg | half-life ([3]; n = 3, read-out: t1/2, h (converted)): 48 ± 6 min

6-(2S,3R)—N-[(1R)-1-(1,3,6,2-dioxazaborocan-2-yl)-3-methylbutyl}-3-hydroxy-2-{(6-phenylpyridin-2-yl)formamido]butanamide [boronic ester of Formula X]
Appearance ([4]; 4° C., 1 M): White to off- | Appearance ([4]; 4° C., 6 M): White to off- | Appearance ([4]; 4° C., 12 M): White to off- | Chemical purity (%) ([4]; 4° C./ambient RH, 1 M): 99.8% | Impurity by HPLC (%) RRT = 0.49 ([4]; 4° C./ambient RH, 1 M): 0.06% | Impurity by HPLC (%) RRT = 1.18 ([4]; 4° C./ambient RH, 1 M): 0.17% | Chemical purity (%) ([4]; 4° C./ambient RH, 6 M): 99.9% | Chemical purity (%) ([4]; 4° C./ambient RH, 12 M): 99.9% | Impurity by HPLC (%) RRT = 1.18 ([4]; 4° C./ambient RH, 12 M): 0.07% | Appearance ([4]; 25° C./60% RH, 1 M): White to off- | Chemical purity (%) ([4]; 25° C./60% RH, 1 M): 99.6% | Impurity by HPLC (%) RRT = 0.49 ([4]; 25° C./60% RH, 1 M): 0.09% | Impurity by HPLC (%) RRT = 1.18 ([4]; 25° C./60% RH, 1 M): 0.32% | Appearance ([4]; 25° C./60% RH, 6 M): White to off- | Chemical purity (%) ([4]; 25° C./60% RH, 6 M): 99.8% | Impurity by HPLC (%) RRT = 0.49 ([4]; 25° C./60% RH, 6 M): 0.08% | Impurity by HPLC (%) RRT = 1.18 ([4]; 25° C./60% RH, 6 M): 0.06% | Appearance ([4]; 25° C./60% RH, 12 M): White to off- | Chemical purity (%) ([4]; 25° C./60% RH, 12 M): 99.9% | Impurity by HPLC (%) RRT = 0.49 ([4]; 25° C./60% RH, 12 M): 0.07% | Impurity by HPLC (%) RRT = 1.18 ([4]; 25° C./60% RH, 12 M): 0.08% | Appearance ([4]; 40° C./75% RH, 1 M): White to off- | Chemical purity (%) ([4]; 40° C./75% RH, 1 M): 99.7% | Impurity by HPLC (%) RRT = 0.49 ([4]; 40° C./75% RH, 1 M): 0.10% | Impurity by HPLC (%) RRT = 1.18 ([4]; 40° C./75% RH, 1 M): 0.18% | Appearance ([4]; 40° C./75% RH, 6 M): White to off- | Chemical purity (%) ([4]; 40° C./75% RH, 6 M): 99.8% | Impurity by HPLC (%) RRT = 0.49 ([4]; 40° C./75% RH, 6 M): 0.10% | Impurity by HPLC (%) RRT = 1.18 ([4]; 40° C./75% RH, 6 M): 0.11% | Appearance ([4]; T0): White to off- | Impurity by HPLC (%) RRT = 1.18 ([4]; T0): 0.50% | Chemical purity (%) ([4]; T0, HPLC of Compound 1 hydrolysis product): 99.5%
